# Measured values taken from ChEMBL document CHEMBL1201862, “PubChem BioAssay data set” (2004).
# The source made the active and inactive calls.
# Columns and labels:
# [1] = inhibitors of intracellular T. cruzi replication, confirmation, NIH3T3 host cells, beta-gal luminescence (AID 2044); type: functional, cell-based;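 note: intracellular parasites grown in NIH/3T3 mouse fibroblasts as host cells; luminescent beta-galactosidase reporter signal from transgenic T. cruzi replicating inside host cells; inhibitors lower the luminescence signal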
# [2] = cytotoxicity toward NIH3T3 fibroblasts, dose response, counter-screen, cell-based, ATP luminescence, mouse fibroblasts (AID 2010); type: functional;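 note: cells exposed to compound for about 90 hours before reading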
# Nonstructural protein 1 = Nonstructural protein 1 (Influenza A virus, UniProt Q194T2); type: functional, Influenza A virus (A/California/07/2009(H1N1))
# Sequence of Nonstructural protein 1 (Q194T2 whole entry): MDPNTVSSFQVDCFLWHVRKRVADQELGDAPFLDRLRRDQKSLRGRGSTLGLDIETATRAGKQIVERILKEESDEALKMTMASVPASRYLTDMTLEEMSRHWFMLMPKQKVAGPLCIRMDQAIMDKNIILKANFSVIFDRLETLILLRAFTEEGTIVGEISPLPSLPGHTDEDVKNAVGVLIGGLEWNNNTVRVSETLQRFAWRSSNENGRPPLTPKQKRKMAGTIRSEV
# [3] = target: DNA dC->dU-editing enzyme APOBEC-3A (Homo sapiens, UniProt P31941); test: Dose Response confirmation of small molecule APOBEC3A DNA Deaminase Inhibitors via a fluorescence-based single-stranded DNA deaminase assay. [Related pubchem assays (depositor defined):AID493011, AID493024]; type: functional
# Sequence of DNA dC->dU-editing enzyme APOBEC-3A (P31941 whole entry): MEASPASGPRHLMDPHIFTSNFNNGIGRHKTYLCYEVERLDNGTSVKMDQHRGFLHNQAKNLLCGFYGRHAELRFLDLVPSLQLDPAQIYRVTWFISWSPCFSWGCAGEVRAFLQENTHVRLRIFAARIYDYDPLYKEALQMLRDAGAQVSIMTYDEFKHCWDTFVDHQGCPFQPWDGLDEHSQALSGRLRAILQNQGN
# [4] = target: DNA dC->dU-editing enzyme APOBEC-3G (Homo sapiens, UniProt Q9HC16); type: functional;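 note: Dose-response counterscreen measuring inhibition of APOBEC3G DNA deaminase activity, run while confirming APOBEC3A inhibitors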
# Sequence of DNA dC->dU-editing enzyme APOBEC-3G (Q9HC16 whole entry, the tested form may be a part): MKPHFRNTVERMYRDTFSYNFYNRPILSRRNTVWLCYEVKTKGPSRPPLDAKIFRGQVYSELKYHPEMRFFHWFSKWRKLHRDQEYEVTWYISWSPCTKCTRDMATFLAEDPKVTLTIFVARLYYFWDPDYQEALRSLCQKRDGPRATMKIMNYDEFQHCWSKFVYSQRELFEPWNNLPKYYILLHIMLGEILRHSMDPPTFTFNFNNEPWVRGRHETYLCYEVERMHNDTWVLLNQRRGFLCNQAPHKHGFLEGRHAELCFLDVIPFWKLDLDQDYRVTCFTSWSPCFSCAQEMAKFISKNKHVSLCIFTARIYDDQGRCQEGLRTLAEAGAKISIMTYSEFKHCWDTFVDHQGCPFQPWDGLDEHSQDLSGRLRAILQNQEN
# [5] = target: Arf-GAP with SH3 domain, ANK repeat and PH domain-containing protein 1 (Homo sapiens, UniProt Q9ULH1); type: functional;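 note: biochemical fluorescence polarization dose–response screen measuring inhibition of ASAP1; ASAP1 GAP domain stimulating GTP hydrolysis by truncated human ARF1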
# Sequence of Arf-GAP with SH3 domain, ANK repeat and PH domain-containing protein 1 (Q9ULH1 whole entry, the tested form may be a part): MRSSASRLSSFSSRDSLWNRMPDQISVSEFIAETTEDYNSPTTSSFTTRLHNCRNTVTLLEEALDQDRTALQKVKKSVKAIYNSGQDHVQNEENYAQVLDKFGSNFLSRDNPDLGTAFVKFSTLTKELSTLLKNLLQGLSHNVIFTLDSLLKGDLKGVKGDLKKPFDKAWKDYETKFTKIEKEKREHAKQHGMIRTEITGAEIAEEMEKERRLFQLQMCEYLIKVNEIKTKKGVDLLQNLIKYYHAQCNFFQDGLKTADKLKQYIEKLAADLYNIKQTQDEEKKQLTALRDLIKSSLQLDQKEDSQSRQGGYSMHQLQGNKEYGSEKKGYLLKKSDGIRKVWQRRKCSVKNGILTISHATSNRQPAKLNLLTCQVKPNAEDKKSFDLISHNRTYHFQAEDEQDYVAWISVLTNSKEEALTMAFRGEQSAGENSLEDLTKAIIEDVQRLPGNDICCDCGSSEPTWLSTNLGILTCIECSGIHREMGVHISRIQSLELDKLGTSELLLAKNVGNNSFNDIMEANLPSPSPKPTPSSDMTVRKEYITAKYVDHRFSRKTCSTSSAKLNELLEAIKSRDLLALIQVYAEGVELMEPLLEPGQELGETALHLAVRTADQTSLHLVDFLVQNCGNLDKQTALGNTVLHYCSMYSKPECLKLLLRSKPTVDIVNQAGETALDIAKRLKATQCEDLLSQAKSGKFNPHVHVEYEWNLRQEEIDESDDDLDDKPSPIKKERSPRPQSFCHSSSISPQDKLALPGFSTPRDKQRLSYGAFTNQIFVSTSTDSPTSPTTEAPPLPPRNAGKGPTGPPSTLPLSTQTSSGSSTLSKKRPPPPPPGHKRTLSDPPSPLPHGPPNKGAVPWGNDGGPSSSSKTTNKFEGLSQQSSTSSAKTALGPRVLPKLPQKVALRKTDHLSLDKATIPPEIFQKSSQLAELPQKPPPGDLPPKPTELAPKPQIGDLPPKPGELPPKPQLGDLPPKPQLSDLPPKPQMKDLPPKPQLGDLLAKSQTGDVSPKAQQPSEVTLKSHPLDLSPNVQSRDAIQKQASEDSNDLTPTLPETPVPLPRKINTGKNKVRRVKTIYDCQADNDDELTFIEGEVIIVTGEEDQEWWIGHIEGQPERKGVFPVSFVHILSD
# Cytochrome P450 1A2 = target: T1, Cytochrome P450 1A2 (Homo sapiens, UniProt P05177);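 note: PubChem cytochrome P450 panel assay, CYP1A2 panel member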
# T1 sequence (P05177 whole entry): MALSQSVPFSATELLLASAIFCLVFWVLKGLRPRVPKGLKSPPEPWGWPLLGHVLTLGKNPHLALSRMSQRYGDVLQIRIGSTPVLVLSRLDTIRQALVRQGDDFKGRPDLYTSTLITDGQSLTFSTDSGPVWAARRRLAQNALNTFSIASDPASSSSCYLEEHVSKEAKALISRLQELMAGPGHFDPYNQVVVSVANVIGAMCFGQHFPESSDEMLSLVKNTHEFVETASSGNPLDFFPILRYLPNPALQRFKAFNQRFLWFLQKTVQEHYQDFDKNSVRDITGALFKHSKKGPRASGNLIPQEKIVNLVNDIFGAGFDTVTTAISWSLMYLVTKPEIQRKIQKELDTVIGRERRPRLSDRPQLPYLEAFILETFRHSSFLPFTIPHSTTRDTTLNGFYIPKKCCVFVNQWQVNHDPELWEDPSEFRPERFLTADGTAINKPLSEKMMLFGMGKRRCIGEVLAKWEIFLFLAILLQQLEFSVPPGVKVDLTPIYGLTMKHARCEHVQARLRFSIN
# Cytochrome P450 3A4 = Cytochrome P450 3A4 (Homo sapiens, UniProt P08684);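 note: CYP3A4 tested as one member of a cytochrome P450 panel screen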
# Sequence of Cytochrome P450 3A4 (P08684 whole entry): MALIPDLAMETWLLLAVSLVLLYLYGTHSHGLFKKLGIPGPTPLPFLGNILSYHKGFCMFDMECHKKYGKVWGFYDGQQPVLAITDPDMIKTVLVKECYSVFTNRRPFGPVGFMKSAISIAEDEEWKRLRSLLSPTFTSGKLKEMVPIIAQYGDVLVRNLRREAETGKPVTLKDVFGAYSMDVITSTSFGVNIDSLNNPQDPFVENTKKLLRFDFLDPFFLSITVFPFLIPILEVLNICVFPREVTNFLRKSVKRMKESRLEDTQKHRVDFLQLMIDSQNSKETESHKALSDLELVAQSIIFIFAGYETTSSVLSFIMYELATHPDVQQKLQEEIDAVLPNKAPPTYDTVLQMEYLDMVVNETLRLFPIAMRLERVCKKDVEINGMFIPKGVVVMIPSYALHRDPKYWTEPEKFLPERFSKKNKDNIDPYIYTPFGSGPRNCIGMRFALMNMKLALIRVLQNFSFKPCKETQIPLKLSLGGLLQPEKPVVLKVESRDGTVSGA
# [6] = target: T2, Methionyl-tRNA synthetase, putative (Trypanosoma brucei brucei, UniProt Q38C91); type: functional, Trypanosoma brucei brucei strain 927/4 GUTat10.1
# T2 sequence (Q38C91 whole entry): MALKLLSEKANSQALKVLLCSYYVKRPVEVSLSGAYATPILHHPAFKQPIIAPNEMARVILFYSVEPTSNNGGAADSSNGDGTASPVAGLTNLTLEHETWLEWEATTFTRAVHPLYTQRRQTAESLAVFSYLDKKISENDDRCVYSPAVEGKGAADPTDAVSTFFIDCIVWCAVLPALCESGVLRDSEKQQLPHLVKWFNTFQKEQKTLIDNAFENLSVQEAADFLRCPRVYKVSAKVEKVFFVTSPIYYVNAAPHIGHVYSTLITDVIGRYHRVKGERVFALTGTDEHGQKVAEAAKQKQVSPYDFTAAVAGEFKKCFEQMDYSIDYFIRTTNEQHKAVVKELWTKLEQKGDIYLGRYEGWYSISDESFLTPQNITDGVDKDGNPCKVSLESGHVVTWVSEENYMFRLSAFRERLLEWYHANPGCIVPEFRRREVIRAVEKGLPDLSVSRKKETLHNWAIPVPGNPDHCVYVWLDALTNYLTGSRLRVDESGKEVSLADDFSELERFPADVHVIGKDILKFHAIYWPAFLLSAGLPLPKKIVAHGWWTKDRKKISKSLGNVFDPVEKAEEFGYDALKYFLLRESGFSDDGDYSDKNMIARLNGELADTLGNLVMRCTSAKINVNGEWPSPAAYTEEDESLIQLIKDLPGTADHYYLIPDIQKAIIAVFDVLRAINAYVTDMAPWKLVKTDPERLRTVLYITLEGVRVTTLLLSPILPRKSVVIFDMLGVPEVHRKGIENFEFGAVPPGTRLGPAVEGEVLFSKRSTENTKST
# [7] = Counterscreen for inhibitors of Trypanosoma brucei methionyl tRNA synthetase (MetRS): Luminescence-based cell-based high throughput dose response assay to identify compounds that are cytotoxic to Jurkat human T lymphocyte cells.; type: functional
# [8] = target: T2, Methionyl-tRNA synthetase, putative; type: functional, Trypanosoma brucei brucei strain 927/4 GUTat10.1; remark: listed apart in the source
# [9] = target: Induced myeloid leukemia cell differentiation protein Mcl-1 (Homo sapiens, UniProt Q07820); type: functional
# Sequence of Induced myeloid leukemia cell differentiation protein Mcl-1 (Q07820 whole entry): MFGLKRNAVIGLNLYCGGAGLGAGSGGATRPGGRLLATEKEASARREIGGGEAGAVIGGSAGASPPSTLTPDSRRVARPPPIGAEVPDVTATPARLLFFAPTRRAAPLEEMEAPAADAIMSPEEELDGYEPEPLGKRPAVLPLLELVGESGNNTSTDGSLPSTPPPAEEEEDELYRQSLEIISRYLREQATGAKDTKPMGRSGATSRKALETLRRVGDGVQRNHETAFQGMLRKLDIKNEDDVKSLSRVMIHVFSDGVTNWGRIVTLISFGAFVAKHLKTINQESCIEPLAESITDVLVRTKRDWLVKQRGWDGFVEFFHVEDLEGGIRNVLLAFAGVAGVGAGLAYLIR
# Estrogen receptor = target: T3, Estrogen receptor (Homo sapiens, UniProt P03372);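 note: potency for inhibiting coactivator peptide recruitment to the receptor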
# T3 sequence (P03372 whole entry): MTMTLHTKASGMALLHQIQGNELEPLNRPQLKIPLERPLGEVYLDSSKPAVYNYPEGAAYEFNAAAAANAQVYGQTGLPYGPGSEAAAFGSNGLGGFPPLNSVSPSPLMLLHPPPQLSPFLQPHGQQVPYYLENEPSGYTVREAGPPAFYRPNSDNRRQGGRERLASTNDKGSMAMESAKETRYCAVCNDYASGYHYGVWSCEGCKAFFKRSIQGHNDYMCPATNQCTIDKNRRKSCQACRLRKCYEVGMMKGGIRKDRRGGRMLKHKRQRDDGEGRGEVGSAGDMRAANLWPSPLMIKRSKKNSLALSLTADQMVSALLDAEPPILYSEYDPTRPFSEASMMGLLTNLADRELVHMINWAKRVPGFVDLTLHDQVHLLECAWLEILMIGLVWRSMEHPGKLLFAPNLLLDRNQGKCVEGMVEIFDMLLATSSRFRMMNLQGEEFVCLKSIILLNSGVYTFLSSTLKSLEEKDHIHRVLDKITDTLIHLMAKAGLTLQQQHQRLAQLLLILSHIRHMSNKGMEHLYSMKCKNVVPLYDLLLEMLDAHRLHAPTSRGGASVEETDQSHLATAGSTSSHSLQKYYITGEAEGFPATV
# [10] = target: T4, Heat shock factor protein 1 (Mus musculus, UniProt P38532); test: inhibition of MG132-induced HSE-luciferase signal, confirmation, cell-based, NIH3T3, luminescence, dose retest (AID 2382); type: functional;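 note: NIH3T3 fibroblasts with HSF1-driven luciferase reporter stressed by proteasome inhibitor MG132; luminescence from HSF1-driven luciferase expression after 8 hours of MG132 stress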
# T4 sequence (P38532 whole entry): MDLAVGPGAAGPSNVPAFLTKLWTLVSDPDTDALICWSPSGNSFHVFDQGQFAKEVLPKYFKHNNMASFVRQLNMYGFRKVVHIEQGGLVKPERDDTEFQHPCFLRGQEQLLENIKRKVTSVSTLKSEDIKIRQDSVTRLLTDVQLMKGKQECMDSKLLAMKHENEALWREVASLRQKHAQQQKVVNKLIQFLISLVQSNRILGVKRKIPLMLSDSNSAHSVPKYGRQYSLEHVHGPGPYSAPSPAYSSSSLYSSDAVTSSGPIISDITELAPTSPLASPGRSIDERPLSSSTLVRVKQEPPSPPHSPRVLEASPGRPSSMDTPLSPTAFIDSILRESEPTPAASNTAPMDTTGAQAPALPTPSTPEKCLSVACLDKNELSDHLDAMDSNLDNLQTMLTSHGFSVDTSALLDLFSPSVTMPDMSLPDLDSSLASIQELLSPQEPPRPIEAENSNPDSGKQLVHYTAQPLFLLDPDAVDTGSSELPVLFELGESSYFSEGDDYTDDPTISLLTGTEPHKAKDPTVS
# [11] = target: T5, Carboxy-terminal domain RNA polymerase II polypeptide A small phosphatase 1 (Homo sapiens, UniProt Q9GZU7); test: inhibitors of CTDSP1, concentration-response testing, biochemical assay, absorbance-based, actives from ultra-high-throughput screening (AID 540297); type: functional
# T5 sequence (Q9GZU7 whole entry): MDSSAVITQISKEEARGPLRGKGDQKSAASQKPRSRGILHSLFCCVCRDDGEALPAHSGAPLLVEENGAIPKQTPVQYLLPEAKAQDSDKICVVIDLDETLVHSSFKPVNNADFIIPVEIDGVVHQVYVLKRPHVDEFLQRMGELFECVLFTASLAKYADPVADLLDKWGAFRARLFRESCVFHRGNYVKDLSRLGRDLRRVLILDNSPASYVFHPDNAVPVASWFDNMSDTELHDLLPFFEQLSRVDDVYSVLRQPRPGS
# [12] = target: Eukaryotic translation initiation factor 4E (Mus musculus, UniProt P63073); test: eIF4E–eIF4G protein interaction inhibitors, dose response, biochemical, TR-FRET (AID 855); type: functional;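 note: potency for disrupting eIF4E binding to eIF4GI seen as loss of FRET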
# Sequence of Eukaryotic translation initiation factor 4E (P63073 whole entry): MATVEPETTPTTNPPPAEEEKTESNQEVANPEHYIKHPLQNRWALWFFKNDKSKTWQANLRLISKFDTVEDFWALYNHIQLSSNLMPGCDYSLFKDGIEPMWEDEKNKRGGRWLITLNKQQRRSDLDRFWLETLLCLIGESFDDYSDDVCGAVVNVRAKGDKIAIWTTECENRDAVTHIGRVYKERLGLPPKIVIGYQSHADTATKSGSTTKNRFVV
# cells [13] = type: functional, cell-based
# cells [14] = type: functional, cell-based; remark: listed apart in the source
# [15] = target: T6, Long-chain-fatty-acid--AMP ligase FadD28 (Mycobacterium tuberculosis, UniProt P9WQ59); test: Fluorescence polarization aasay to screen for inhibitors that compete for the binding of FadD28 to a bisubstrate Measured in Biochemical System Using Plate Reader - 2147-01_Inhibitor_Dose_CherryPick_Activity.; type: functional, Mycobacterium tuberculosis H37Rv
# T6 sequence (P9WQ59 whole entry): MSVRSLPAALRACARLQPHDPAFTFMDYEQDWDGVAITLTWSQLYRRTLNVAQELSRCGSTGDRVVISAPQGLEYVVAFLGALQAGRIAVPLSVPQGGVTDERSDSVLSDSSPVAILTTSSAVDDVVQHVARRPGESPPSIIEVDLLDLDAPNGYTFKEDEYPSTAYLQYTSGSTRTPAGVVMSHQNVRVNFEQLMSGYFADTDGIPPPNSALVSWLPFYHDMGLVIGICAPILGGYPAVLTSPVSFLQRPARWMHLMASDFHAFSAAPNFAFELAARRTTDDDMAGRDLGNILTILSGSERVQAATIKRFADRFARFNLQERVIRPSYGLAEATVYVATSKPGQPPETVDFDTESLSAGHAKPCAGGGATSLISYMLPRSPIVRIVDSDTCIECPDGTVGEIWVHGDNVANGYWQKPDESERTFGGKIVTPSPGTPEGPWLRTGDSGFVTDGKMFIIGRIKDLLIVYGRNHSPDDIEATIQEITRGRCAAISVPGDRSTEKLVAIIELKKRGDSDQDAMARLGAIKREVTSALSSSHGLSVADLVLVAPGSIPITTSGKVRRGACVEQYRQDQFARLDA
smiles,measurement,setting,value
N#C/C(=C\C1=C(N2CCOCC2)C(=C\c2ccccc2)/CC1)C(=O)Nc1ccccc1F,EC50,[1],1.01 µM (active)
same,EC50,[2],> 60 µM (not active)
same,IC50,Nonstructural protein 1,13.3 µM (active)
COc1cc(/C=C(/C#N)C(=O)NCCCc2ccccc2)ccc1OCC(=O)O,IC50,[3],1.61 µM (active)
same,IC50,[4],3.23 µM (active)
CCOc1ccc(C(=O)Nc2cccc(-c3cc4ccccc4oc3=O)c2)cc1[N+](=O)[O-],IC50,[5],37.9 µM (inactive)
same,AC50,Cytochrome P450 1A2,5.62 µM (inconclusive)
same,AC50,Cytochrome P450 3A4,10 µM (inconclusive)
O=C(COc1cccc(-n2cnnn2)c1)Nc1ccccc1,IC50,[6],76 µM (inactive)
same,IC50,[7],83.3 µM (inactive)
same,IC50,[8],38.2 µM (inactive)
CCOC(=O)C1=C(Nc2ccc(OC)cc2)S/C(=C\c2cc(OC)c(O)c(OC)c2)C1=O,IC50,[9],4.24 µM (not active)
Cn1nc(C(F)(F)F)c(-c2cccc(C(F)(F)F)c2)c1NC(=O)Nc1ccc(F)cc1,IC50,[6],119 µM (inactive)
same,IC50,[7],28.9 µM (inactive)
same,IC50,[8],10.4 µM (inactive)
Cc1ccc(Nc2nnc(SCC(=O)NCc3ccco3)s2)cc1,IC50,Estrogen receptor,28.8 µM (active)
CCOc1ccc2c(c1)[N+](C)(C)C(C)(C)C=C2C,EC50,[10],> 195 µM (not active)
same,IC50,[3],2.96 µM (active)
same,IC50,[4],3.2 µM (active)
O=C(Cc1ccc(Cl)c(Cl)c1)Nc1cccc(S(=O)(=O)N2CCOCC2)c1,IC50,[6],7.78 µM (active)
same,IC50,[7],34.8 µM (inactive)
same,IC50,[8],4.48 µM (active)
Clc1ccc(Cn2cc(/C=N/n3cnnc3)c3ccccc32)c(Cl)c1,IC50,[5],12.9 µM (inactive)
OC(c1cc(Cl)cc(Cl)c1)c1nc(-c2cccc(F)c2)c[nH]1 (stereo not given),IC50,[6],10.6 µM (inactive)
same,IC50,[7],83.3 µM (inactive)
same,IC50,[8],7.94 µM (active)
COc1ccccc1/C=c1\sc2nc(-c3ccco3)nn2c1=O,IC50,Estrogen receptor,17.5 µM (active)
same,IC50,[9],7.38 µM (active)
same,IC50,[11],5 µM (active)
Cc1ccc(CNC(=O)c2ccc(-n3cccc3)cc2)cc1,IC50,[9],3.27 µM (active)
same,IC50,[12],50 µM (inactive)
COc1ccc(N2CC(C(=O)N/N=C/c3cc([N+](=O)[O-])ccc3O)CC2=O)cc1 (stereo not given),IC50,Nonstructural protein 1,17.8 µM (active)
COc1ccc(/C=N/CC2OCCc3ccccc32)cc1OC (stereo not given),IC50,cells [13],> 29.9 µM (inactive)
same,EC50,cells [14],> 29.9 µM (inactive)
CCc1ccc2[nH]c(=O)c(CN(Cc3ccc4c(c3)OCO4)C(=O)c3ccco3)cc2c1,IC50,Estrogen receptor,26.2 µM (active)
CCN1C(NCC2CC2)=N[C@@H](c2cccc(C(F)(F)F)c2)C(C(=O)OC)=C1C,IC50,[3],4.22 µM (active)
same,IC50,[4],6.71 µM (active)
Oc1c(C(c2ccc(F)cc2)N2CCc3ccccc3C2)sc2ncnn12 (stereo not given),IC50,cells [13],> 29.9 µM (inactive)
same,EC50,cells [14],> 29.9 µM (inactive)
CCOC(=O)C1CCCN(C(=O)c2cc(Nc3ccc(OC)cc3)nc3ccccc23)C1 (stereo not given),AC50,[15],30.5 µM (active)
